# US8227240B2, “Systems for screening pharmaceutical chemicals” (The Washington University, priority 2001, dated 2012)
# What was measured:
# [1] = system: bio-artificial tissues including chicken embryo fibroblasts; assay: Tissue indentation device: stiffness and active cell force after CD (Example 16); type: cell-based
# Method: Bio-artificial tissues were generated by mixing cells and neutralized collagen, as described elsewhere (Wakatsuki et al., 2000, Biophys. J. 79:2353-2368). Briefly, cells were mixed with neutralized rat-tail collagen (Millipore Billerica, Mass.) and media containing 10% Fetal Bovine Serum (FBS). 200-250[…]1 of this solution is poured into wells as described below. The tissues are cultured in Dulbecco's modified Eagle's medium (DMEM) supplemented with 10% FBS and antibiotics (penicillin and streptomycin) in an incubator for two or three days. The bio-artificial tissue membrane was stretched using a mechanical testing device is (as detailed below). During the mechanical measurements, culture medium was switched to a HEPES-buffered DMEM, pH 7.4, and maintained at 37° C.
# Cells used in this study included: (1) rat embryo fibroblasts (REF52 cell line) maintained in DMEM supplemented with 10% FBS split once a week (kind gift from Dr. Wysolmerski, Department of Neurobiology and Anatomy, West Virginia University School of Medicine), (2) chicken embryo fibroblasts (CEFs) isolated from 10 day old chicken embryos using a previously described protocol (Wakatsuki et al., 2000, Biophys. J. 79(5):2353-2368) maintained in DMEM supplemented with 3% FBS (passage 2 to 5), and (3) smooth muscle cells (SMC) isolated from adult rat aorta using a previously described protocol (Griendling et al., 1991, J. Biol. Chem. 266(23):15498-15504) cultured in DMEM supplemented with 10% FBS and 1% […] (passage 10-12).
# A chamber to hold 8 bio-artificial tissues was machined from a polycarbonate bar (25×60×10 mm) using a tabletop CNC mill (Sherline Products Inc., Vista, Calif.). The 8 square wells of 8×8 mm contained 2 horizontal stainless-steel (medical grade) bars (1 mm diameter) which centers were located 2 mm above bottom and 2 mm beside each wall and were 4 mm apart (FIG. 29A). A microscope cover-slip (No. 1 thickness, Fisher brand) sealed the bottom of wells using silicon glue (Dow chemicals) to facilitate microscopic imaging of cells and bio-artificial tissues. A pre-polymerized solution of bio-artificial tissues was poured into the wells until the horizontal bars became immersed to half of its depth. During tissue culture, the solution gelled and entrapped cells that remodeled and compacted the gel (Tranquillo, 1999, Biochem. Soc. Symp. 65:27-42) by cell traction force. By the next day, the bio-artificial tissues detached from the bottom and side wall to form a membrane spanning between the two bars. The bio-artificial tissues stiffened to form a thin layer of tissue overlaying the bars and generated active tension within the bio-artificial tissues. The chambers were sterilized by UV before usage and kept in a 100 mm sterile Petri dish to avoid any contamination.
# The mechanical testing device is depicted in FIG. 29A. A horizontal linear actuator (FIG. 29A-a, ER32-SRN300A, Parker, Wadsworth, Ohio) automatically places the center of each well at right angles below a force-probe (FIG. 29A-c). The bottom of L-shaped probe indents and bends the bio-artificial tissues at the middle (FIG. 29D). The other end of the probe is connected to an isometric force transducer (FIG. 29A-b, model 52-9545, Harvard Apparatus, South Natick, Mass.) and moved by a vertical linear actuator (FIG. 29A-a, ER32-SRN100A, Parker, Wadsworth, Ohio). During the tests, the temperature of bio-artificial tissues in the wells was maintained at 37° C. using a water jacketed warm plate (FIG. 29A-e) connected to a circulating water bath (HAAKE C10-P5, Thermo Fisher Scientific, Inc. Waltham, Mass.). The linear actuators were controlled simultaneously by a personal computer that also recorded the signal generated by the force transducer. The bio-artificial tissues can be quickly placed in a holder at its designated position for mechanical measurements. A time dependent function to lengthen and shorten bio-artificial tissues was predetermined using the computer software of the device. […]
# ring tissue model = assay: Contractile force developed by ring sample during tissue development (matrix remodeling and compression); type: cell-based; conditions: Cytochalasin D 2 μM
# Method: The contractile force developed by the ring sample during matrix remodeling and compression can be measured by connecting the ring to the force measuring apparatus as described above within about 1-2 hours after collagen gelation. The cells begin to exert a force on the matrix after this time. Then the increase of force during tissue development (remodeling and compression) is observed over time.
# Maximum force is typically reached within 15 to 20 hours. This process was also disrupted by several inhibitors as illustrated in FIGS. 18(b)-(d).
smiles,measurement,setting,value
"C=C1[C@@H](C)[C@H]2[C@H](Cc3ccccc3)NC(=O)[C@]23[C@H](OC(C)=O)/C=C/[C@@](C)(O)C(=O)[C@@H](C)C/C=C/[C@H]3[C@@H]1O [CD, cytochalasin D]","pre-force (active cell force, CD treatment over control)","[1]; 200 pM to 2 μM CD, two hours post-treatment",concentration-dependent reduction
same,EACD/EACT (ratio of post- over pre- CD treated stiffness),[1]; [CD] 0.2 nM,0.932 ± 0.013
same,zCD-zCT (difference in sample surface height between post- and pre- CD treated samples),[1]; [CD] 0.2 nM,−8.925 ± 9.257 μm
same,EACD/EACT (ratio of post- over pre- CD treated stiffness),[1]; [CD] 0.9 nM,0.938 ± 0.016
same,zCD-zCT (difference in sample surface height between post- and pre- CD treated samples),[1]; [CD] 0.9 nM,−21.761 ± 8.982 μm
same,EACD/EACT (ratio of post- over pre- CD treated stiffness),[1]; [CD] 4 nM,0.986 ± 0.015
same,zCD-zCT (difference in sample surface height between post- and pre- CD treated samples),[1]; [CD] 4 nM,−23.707 ± 13.222 μm
same,EACD/EACT (ratio of post- over pre- CD treated stiffness),[1]; [CD] 20 nM,0.979 ± 0.013
same,zCD-zCT (difference in sample surface height between post- and pre- CD treated samples),[1]; [CD] 20 nM,4.550 ± 7.653 μm
same,EACD/EACT (ratio of post- over pre- CD treated stiffness),[1]; [CD] 90 nM,0.970 ± 0.016
same,zCD-zCT (difference in sample surface height between post- and pre- CD treated samples),[1]; [CD] 90 nM,−22.054 ± 12.989 μm
same,EACD/EACT (ratio of post- over pre- CD treated stiffness),[1]; [CD] 400 nM,0.964 ± 0.021
same,zCD-zCT (difference in sample surface height between post- and pre- CD treated samples),[1]; [CD] 400 nM,−17.607 ± 6.533 μm
same,EACD/EACT (ratio of post- over pre- CD treated stiffness),[1]; [CD] 2000 nM,1.077 ± 0.050
same,zCD-zCT (difference in sample surface height between post- and pre- CD treated samples),[1]; [CD] 2000 nM,−35.318 ± 15.189 μm
same,EA (mechanical properties of extracellular matrix),[1]; after the CD treatment,did not change at all
same,development of force during ring tissue development,ring tissue model,completely abolished
